Results published in patent US10385057B2, “Pyrazole compounds and methods of making and using same” (Lundbeck La Jolla Research Center, Inc., priority 2015, dated 2019).

Key:
FAAH [1] = target: T1, FAAH (Mus musculus, UniProt O08914); test: In vitro competitive activity-based protein profiling, mouse FAAH; format: biochemical; conditions: for inhibition at 1 µM: read-out: FAAH % inh. 1 μM (mouse)
T1 construct: mouse brain membrane fraction or cell lysates for mouse assays; from tissue
T1 sequence (O08914 1-579): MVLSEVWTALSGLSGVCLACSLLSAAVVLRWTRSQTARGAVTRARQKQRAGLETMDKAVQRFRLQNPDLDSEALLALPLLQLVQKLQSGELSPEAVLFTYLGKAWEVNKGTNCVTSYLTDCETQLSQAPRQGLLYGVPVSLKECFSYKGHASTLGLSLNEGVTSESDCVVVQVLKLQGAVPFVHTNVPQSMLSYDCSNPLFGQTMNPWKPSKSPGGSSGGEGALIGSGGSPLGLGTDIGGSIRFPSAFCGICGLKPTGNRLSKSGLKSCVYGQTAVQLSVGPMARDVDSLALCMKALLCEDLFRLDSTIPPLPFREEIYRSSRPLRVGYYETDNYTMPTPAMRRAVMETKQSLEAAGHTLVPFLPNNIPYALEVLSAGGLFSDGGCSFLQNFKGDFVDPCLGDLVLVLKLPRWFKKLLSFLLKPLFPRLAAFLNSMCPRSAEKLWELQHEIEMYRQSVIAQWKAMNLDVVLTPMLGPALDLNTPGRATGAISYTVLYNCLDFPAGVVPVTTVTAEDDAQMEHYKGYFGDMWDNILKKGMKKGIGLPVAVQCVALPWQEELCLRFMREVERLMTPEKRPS
How it was run: (§1)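 Mouse brain membranes or cell lysates (mouse) and human prefrontal cortex or cell membrane fractions (human), 1.0 mg/mL protein, preincubated with inhibitor 30 min at 37 °C, then FP-Rh or HT-01 probe 30 min at 37 °C. SDS-PAGE; MAGL and FAAH activity from in-gel fluorescence band intensity.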

MAGL [2] = target: T2, MAGL (Homo sapiens, UniProt Q99685); test: In vitro competitive activity-based protein profiling, human MAGL; format: biochemical; conditions: for inhibition at 10 µM: read-out: MAGL % inh. 10 μM (human); for inhibition at 1 µM: read-out: MAGL % inh. 1 μM (human)
T2 construct: human prefrontal cortex or cell membrane fractions for human assays; from tissue
T2 sequence (Q99685 1-303): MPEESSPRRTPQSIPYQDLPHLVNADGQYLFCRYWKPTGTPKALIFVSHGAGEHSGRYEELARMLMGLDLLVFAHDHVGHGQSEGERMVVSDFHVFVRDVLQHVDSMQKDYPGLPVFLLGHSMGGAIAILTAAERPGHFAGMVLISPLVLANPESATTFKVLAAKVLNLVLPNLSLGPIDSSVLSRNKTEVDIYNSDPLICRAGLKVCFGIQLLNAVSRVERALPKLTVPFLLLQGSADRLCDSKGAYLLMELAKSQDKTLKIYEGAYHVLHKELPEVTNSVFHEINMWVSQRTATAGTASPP
Protocol: (§2) In Vitro Competitive Activity-Based Protein Profiling.
(§3) Proteomes (mouse brain membrane fraction or cell lysates for mouse assays; human prefrontal cortex or cell membrane fractions for human assays) (50 μL, 1.0 mg/mL total protein concentration) were preincubated with varying concentrations of inhibitors at 37° C. After 30 min, FP-Rh or HT-01 (1.0 μL, 50 μM in DMSO) was added and the mixture was incubated for another 30 min at 37° C. Reactions were quenched with SDS loading buffer (15 μL—4×) and run on SDS-PAGE. Following gel imaging, serine hydrolase activity was determined by measuring fluorescent intensity of gel bands corresponding to MAGL and FAAH using ImageJ 1.43u software.

MAGL [3] = target: T3, MAGL (Mus musculus, UniProt O35678); test: In vitro competitive activity-based protein profiling, mouse MAGL; format: biochemical; conditions: for inhibition at 1 µM: read-out: MAGL % inh. 1 μM (mouse)
T3 construct: mouse brain membrane fraction or cell lysates for mouse assays; from tissue
T3 sequence (O35678 1-303): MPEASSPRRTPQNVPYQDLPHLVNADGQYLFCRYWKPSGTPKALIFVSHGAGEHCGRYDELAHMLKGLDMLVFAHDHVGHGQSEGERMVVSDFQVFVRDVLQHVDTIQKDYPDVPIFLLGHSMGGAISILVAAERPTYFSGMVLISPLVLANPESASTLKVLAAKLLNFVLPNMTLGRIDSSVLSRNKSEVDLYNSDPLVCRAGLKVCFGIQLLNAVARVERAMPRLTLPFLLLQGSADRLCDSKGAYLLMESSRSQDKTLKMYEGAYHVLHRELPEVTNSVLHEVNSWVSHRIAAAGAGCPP
How it was run: as §1

FAAH [4] = target: T4, FAAH (Homo sapiens, UniProt O00519); test: In vitro competitive activity-based protein profiling, human FAAH; format: biochemical; conditions: for inhibition at 10 µM: read-out: FAAH % inh. 10 μM (human); for inhibition at 1 µM: read-out: FAAH % inh. 1 μM (human)
T4 construct: human prefrontal cortex or cell membrane fractions for human assays; from tissue
T4 sequence (O00519 1-579): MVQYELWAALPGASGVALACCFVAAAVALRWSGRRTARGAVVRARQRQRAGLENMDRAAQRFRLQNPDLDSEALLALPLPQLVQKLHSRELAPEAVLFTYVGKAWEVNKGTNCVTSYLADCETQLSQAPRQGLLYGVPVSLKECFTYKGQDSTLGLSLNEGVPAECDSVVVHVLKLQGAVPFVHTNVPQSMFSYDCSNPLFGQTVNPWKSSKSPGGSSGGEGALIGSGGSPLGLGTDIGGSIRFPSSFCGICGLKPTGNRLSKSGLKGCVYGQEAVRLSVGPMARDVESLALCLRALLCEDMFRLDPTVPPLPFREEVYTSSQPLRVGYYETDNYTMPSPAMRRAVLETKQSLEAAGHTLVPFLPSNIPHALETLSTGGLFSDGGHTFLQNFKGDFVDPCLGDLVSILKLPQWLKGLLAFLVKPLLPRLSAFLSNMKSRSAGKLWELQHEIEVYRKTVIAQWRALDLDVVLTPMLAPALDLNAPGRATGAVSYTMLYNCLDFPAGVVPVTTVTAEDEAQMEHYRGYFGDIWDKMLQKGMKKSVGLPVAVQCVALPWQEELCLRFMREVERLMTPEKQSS
Protocol: as §2, §3

MAGL [5] = target: T3, MAGL; test: Mouse brain proteomes from inhibitor treated mice, MAGL; format: in vivo; conditions: oral gavage, brain 4 h after administration, read-out: MAGL % inh. 5 mg/kg (mouse)
Protocol: Preparation of Mouse Brain Proteomes from Inhibitor Treated Mice.
Inhibitors were administered to wild-type C57Bl/6J by oral gavage in a vehicle of polyethylene glycol. Each animal was sacrificed 4 h following administration and brain proteomes were prepared and analyzed according to previously established methods (See Niphakis, M. J., et al. (2011) ACS Chem. Neurosci. and Long, J. Z., et al. Nat. Chem. Biol. 5:37-44).

Row | SMILES | inhibition at 1 µM (FAAH [1]) | inhibition at 10 µM (MAGL [2]) | inhibition at 1 µM (MAGL [3]) | inhibition at 10 µM (FAAH [4]) | inhibition at 5 mg/kg (MAGL [5]) | IC50 (FAAH [1]) | IC50 (MAGL [3]) | inhibition at 1 µM (MAGL [2]) | inhibition at 1 µM (FAAH [4])
1 | O=C(O)c1cnn(C(=O)N2CC3CN(Cc4ccc(Cl)cc4)CC3C2)c1 (centres unmarked) [Example 46, 1-(5-(4-chlorobenzyl)octahydropyrrolo[3,4-c]pyrrole-2-carbonyl)-1H-pyrazole-4-carboxylic acid] | ≥ 75% | ≥ 75% | 0 to 25% | 0 to 25% |  |  |  |  | 
2 | O=C(O)c1cnn(C(=O)N2CC3CN(Cc4ccc(C(F)(F)F)cc4)CC3C2)c1 (centres unmarked) [Example 47, 1-(5-(4-(trifluoromethyl)benzyl)octahydropyrrolo[3,4-c]pyrrole-2-carbonyl)-1H-pyrazole-4-carboxylic acid] | ≥ 75% | ≥ 75% | 0 to 25% | 50 to 75% |  |  |  |  | 
3 | O=C(O)c1cnn(C(=O)N2CCC3(CCN(Cc4ccc(Cl)cc4)C3)C2)c1 (centres unmarked) [Example 48, 1-(7-(4-chlorobenzyl)-2,7-diazaspiro[4.4]nonane-2-carbonyl)-1H-pyrazole-4-carboxylic acid] | ≥ 75% | ≥ 75% | 0 to 25% | 0 to 25% |  |  |  |  | 
4 | O=C(N1CC2CN(Cc3ccc(Cl)c(Cl)c3)CC2C1)n1cc(Cl)cn1 (centres unmarked) [Example 119, (4-chloro-1H-pyrazol-1-yl)(5-(3,4-dichlorobenzyl)hexahydropyrrolo[3,4-c]pyrrol-2(1H)-yl)methanone] | ≥ 75% |  | ≥ 75% |  | ≥ 75% | ≤ 100 nM | ≤ 100 nM |  | 
5 | Cc1cc(-c2ccccc2)ccc1CN1CCC2(CCN(C(=O)n3cc(Cl)cn3)C2)C1 (centres unmarked) [Example 130, (4-chloro-1H-pyrazol-1-yl)(7-((3-methyl-[1,1′-biphenyl]-4-yl)methyl)-2,7-diazaspiro[4.4]nonan-2-yl)methanone] | ≥ 75% |  | ≥ 75% |  | ≥ 75% | ≤ 100 nM | ≤ 100 nM |  | 
6 | CN(Cc1ccccc1Cl)[C@H]1C[C@@H]2CN(C(=O)n3cc(C(=O)O)cn3)C[C@@H]2C1 [Example 183, 1-(trans-5-((2-chlorobenzyl)(methyl)amino)octahydrocyclopenta[c]pyrrole-2-carbonyl)-1H-pyrazole-4-carboxylic acid] | 50 to 75% | ≥ 75% | 0 to 25% | 25 to 50% |  |  |  |  | 
7 | O=C(O)c1cnn(C(=O)N2CCC3(CCN(Cc4cccc(Oc5ccccc5)c4)C3)C2)c1 (centres unmarked) [Example 185, 1-(7-(3-phenoxybenzyl)-2,7-diazaspiro[4.4]nonane-2-carbonyl)-1H-pyrazole-4-carboxylic acid] | ≥ 75% | ≥ 75% | 0 to 25% | 25 to 50% |  |  |  |  | 
8 | CN(Cc1cccc(Oc2ccccc2)c1)[C@H]1C[C@@H]2CN(C(=O)n3cc(C(=O)O)cn3)C[C@@H]2C1 [Example 188, 1-(trans-5-(methyl(3-phenoxybenzyl)amino)octahydrocyclopenta[c]pyrrole-2-carbonyl)-1H-pyrazole-4-carboxylic acid] | 50 to 75% | ≥ 75% | 0 to 25% | 50 to 75% |  |  |  |  | 

Further lines, results first:

Row | inhibition at 1 µM (FAAH [1]) | inhibition at 10 µM (MAGL [2]) | inhibition at 1 µM (MAGL [3]) | inhibition at 10 µM (FAAH [4]) | inhibition at 5 mg/kg (MAGL [5]) | IC50 (FAAH [1]) | IC50 (MAGL [3]) | inhibition at 1 µM (MAGL [2]) | inhibition at 1 µM (FAAH [4]) | SMILES
9 | ≥ 75% | ≥ 75% | 0 to 25% | ≥ 75% |  |  |  |  |  | O=C(c1cnn(C(=O)N2CC3CN(Cc4cccc(Oc5ccc(Cl)cc5)c4)CC3C2)c1)N1CCCC1 (centres unmarked) [Example 190, (5-(3-(4-chlorophenoxy)benzyl)hexahydropyrrolo[3,4-c]pyrrol-2(1H)-yl)(4-(pyrrolidine-1-carbonyl)-1H-pyrazol-1-yl)methanone]
10 | ≥ 75% |  | ≥ 75% |  | ≥ 75% | ≤ 100 nM | 100 to 1000 nM |  |  | NC(=O)c1cnn(C(=O)N2CC[C@]3(CCN(Cc4ccc(N5CCOCC5)cc4C(F)(F)F)C3)C2)c1 [Example 195, (S)-1-(7-(4-morpholino-2-(trifluoromethyl)benzyl)-2,7-diazaspiro[4.4]nonane-2-carbonyl)-1H-pyrazole-4-carboxamide]
11 | ≥ 75% | ≥ 75% | 0 to 25% | ≥ 75% |  |  |  | 0 to 25% | ≥ 75% | O=C(O)c1cnn(C(=O)N2CC3CN(Cc4cc(Cl)ccc4C(F)(F)F)CC3C2)c1 (centres unmarked) [Example 196, 1-(5-(5-chloro-2-(trifluoromethyl)benzyl)octahydropyrrolo[3,4-c]pyrrole-2-carbonyl)-1H-pyrazole-4-carboxylic acid]
12 | ≥ 75% | ≥ 75% | 0 to 25% | ≥ 75% |  |  |  | 0 to 25% | ≥ 75% | O=C(O)c1cnn(C(=O)N2CC3CN(Cc4ccc(N5CCCC5)cc4C(F)(F)F)CC3C2)c1 (centres unmarked) [Example 197, 1-(5-(4-(pyrrolidin-1-yl)-2-(trifluoromethyl)benzyl)octahydropyrrolo[3,4-c]pyrrole-2-carbonyl)-1H-pyrazole-4-carboxylic acid]
13 | ≥ 75% | ≥ 75% | 0 to 25% | 50 to 75% |  |  |  | 0 to 25% | ≥ 75% | O=C(O)c1cnn(C(=O)N2CC3CN(Cc4cc(N5CCCC5)cc(C(F)(F)F)c4)CC3C2)c1 (centres unmarked) [Example 198, 1-(5-(3-(pyrrolidin-1-yl)-5-(trifluoromethyl)benzyl)octahydropyrrolo[3,4-c]pyrrole-2-carbonyl)-1H-pyrazole-4-carboxylic acid]
14 | ≥ 75% |  | 0 to 25% |  |  |  |  | ≥ 75% | ≥ 75% | NC(=O)c1cnn(C(=O)N2CCC3(CCN(Cc4cc(N5CCOCC5)cc(C(F)(F)F)c4)C3)C2)c1 (centres unmarked) [Example 210, 1-(7-(3-morpholino-5-(trifluoromethyl)benzyl)-2,7-diazaspiro[4.4]nonane-2-carbonyl)-1H-pyrazole-4-carboxamide]
